Assay results: PubChem BioAssay AID2060612 (Molecular Pharmacology Branch, DTP, NCI, 2025)

System: 565232-114-T-J1-PDC complex spheroid viability
Assay: Anticancer human tumor 565232-114-T-J1-PDC patient-derived bladder carcinoma cell line growth inhibition [CLK]
Details: for IC50: curve of first compound; for viability, T/C: stronger effect = lower value
From the text: A high-throughput screen of multi-cell type tumor spheroids was designed to identify active combinations of […] and targeted small molecules. Complex spheroids include a stromal component modeled by human endothelial cells (HUVEC) and fibroblasts modeled by human mesenchymal stem cells (MSCs). The concentration ranges selected for each drug and investigational agent were based upon clinically achievable concentrations if the clinical Cmax of the agent was known.
Compounds. The drugs and investigational agents: cirtuvivint (SM08502; NSC835563), CC-671 (NSC850746), vemurafenib (NSC761431), tapotoclax (NSC804041), sotorasib (NSC818433), adagrasib (NSC831453), MRTX-1133 (NSC836407), BAY2416964 (NSC825713), copanlisib (NSC816437), inavolisib (NSC800729), abemaciclib (NSC768073), osimertinib (NSC779217), entinostat (NSC756642), eltanexor (KPT-8602, NSC794443), venetoclax (NSC766270), ceralasertib (NSC777638), bortezomib (NSC756655), olaparib (NSC753686), talazoparib (NSC767125), alisertib (NSC759677), peposertib (NSC802822), gemcitabine (NSC613327), 5-fluorouracil (NSC19893), SN-38 (NSC673596), oxaliplatin (NSC266046), paclitaxel (NSC125973), and doxorubicin (NSC123127), were obtained from the National Cancer Institute (NCI) Developmental Therapeutics Program Chemical Repository. The FDA-approved anticancer drug set is available from the Developmental Therapeutics Program at https://dtp.cancer.gov/organization/dscb/obtaining/available plates.htm. […] The stock solutions were prepared in dimethyl sulfoxide (DMSO, Sigma-Aldrich, St. Louis, MO, cat. D2650), except for the platinum complexes which were prepared in saline (Quality Biological, Gaithersburg, MD, cat. 114-055-101), at 800-fold the tested concentration and stored at -70 degrees C prior to their use. All drugs and investigational agents were tested over a range starting from a high concentration at or near the clinical Cmax and decreasing in half-log increments. If the clinical Cmax for an agent had not been determined, the highest concentration tested was 10 microM.
Cell Culture. All cells were maintained in an incubator at 37 degrees C and 5% CO2 with 95% humidity. The PDC lines were cultured according to standard operating procedures established by the NCI PDMR. Briefly, all PDCs were thawed and cultured in Matrigel-coated flasks prepared with a working solution of 1X Ham's F-12 nutrient mix, without supplementation (Invitrogen, Waltham, MA, cat. 11765054), 100 U/mL penicillin-streptomycin (Invitrogen, cat. 15140122), and 2.5% Matrigel (Corning Inc., Corning, NY, cat. 354248) for the first three passages. The 947758-054-R-J2-PDC line was cultured in 6B/Colon 1A media, which includes advanced DMEM/F-12 (Thermo Fisher Scientific, cat. 12634028), 10 mM HEPES (Thermo Fisher Scientific, cat. 15630080), 1X GlutaMAX supplement (Thermo Fisher Scientific, cat. 35050061), 0.1 mg/mL primocin (InvivoGen, cat. ant-pm-2), 10% defined fetal bovine serum, heat inactivated (HyClone Laboratories Inc., cat. SH30070.03HI), 1.25 mM N-Acetyl-L-cysteine (Sigma-Aldrich, cat. A9165), 10 mM nicotinamide (Sigma-Aldrich, cat. N0636), 1X B-27 supplement (Thermo Fisher Scientific, cat. 17504044), 1X N-2 supplement (Thermo Fisher Scientific, cat. 17502048), and 10 microM Y-27632 dihydrochloride (Tocris Bioscience, cat. 1254). The 876862-298-R-J1-PDC was cultured in 6E media, which includes all 6B/Colon 1A media components plus 50% L-WRN conditioned media (ATCC, cat. CRL-3276), 50 ng/mL recombinant human EGF recombinant protein (hEGF; Thermo Fisher Scientific, cat. PHG0311), 10 ng/mL recombinant human fibroblast growth factor 10 (hGFG-10; PeproTech, cat. 100-26), 1 ng/mL recombinant human fibroblast growth factor 2 (hFGF-2; PeproTech, cat. 100-18B), and 1 µM prostaglandin E2 (PGE2; Tocris, cat. 2296). The 227483-062-R1-J1-PDC line was cultured in Panc media, containing all 6E components except hFGF-2, with the addition of 500 nM SB-431542 (Selleckchem, cat. S1067) and 10 nM gastrin (Tocris, cat. 3006). […]
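Further: spheroids exposed to compounds for 7 days before readout.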
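Wherever viability, T/C is given: 100% = DMSO vehicle wells with luminescence normalized to vehicle control.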

In the case of C=CC(=O)Nc1cc(Nc2nccc(-c3cn(C)c4ccccc34)n2)c(OC)cc1N(C)CCN(C)C + CN1CCN(c2cc(C(=O)Nc3cc4cc(-c5cnn(C)c5)ccc4cn3)ccn2)CC1, the IC50 (second compound 0.0316 µM) is reported as over 300 nM, the IC50 (second compound 0.1 µM) is reported as over 300 nM and the IC50 (second compound 0.316 µM) is reported as under 0.949 nM. The IC50 (second compound 1 µM) was under 0.949 nM, the IC50 (second compound 3.16 µM) was under 0.949 nM and the IC50 (second compound 10 µM) was under 0.949 nM. The viability, T/C (second compound 0.0316 µM, first compound 0.000949 µM) was 104%, the viability, T/C (second compound 0.0316 µM, first compound 0.003 µM) was 95.3% and the viability, T/C (second compound 0.0316 µM, first compound 0.00949 µM) was 106%. It also gave a viability, T/C (second compound 0.0316 µM, first compound 0.03 µM) of 84.1%, a viability, T/C (second compound 0.0316 µM, first compound 0.0949 µM) of 90.6% and a viability, T/C (second compound 0.0316 µM, first compound 0.3 µM) of 83.7%. The viability, T/C (second compound 0.1 µM, first compound 0.000949 µM) was 97.5%, the viability, T/C (second compound 0.1 µM, first compound 0.003 µM) was 85.8% and the viability, T/C (second compound 0.1 µM, first compound 0.00949 µM) was 110%. The viability, T/C (second compound 0.1 µM, first compound 0.03 µM) was 89.3%, the viability, T/C (second compound 0.1 µM, first compound 0.0949 µM) was 97.9% and the viability, T/C (second compound 0.1 µM, first compound 0.3 µM) was 94.5%. It also gave a viability, T/C (second compound 0.316 µM, first compound 0.000949 µM) of 14.9%, a viability, T/C (second compound 0.316 µM, first compound 0.003 µM) of 20.3% and a viability, T/C (second compound 0.316 µM, first compound 0.00949 µM) of 20.1%. The viability, T/C (second compound 0.316 µM, first compound 0.03 µM) was 20.5%, the viability, T/C (second compound 0.316 µM, first compound 0.0949 µM) was 18.7% and the viability, T/C (second compound 0.316 µM, first compound 0.3 µM) was 18.3%. It also gave a viability, T/C (second compound 1 µM, first compound 0.000949 µM) of 0.2%, a viability, T/C (second compound 1 µM, first compound 0.003 µM) of 0.26% and a viability, T/C (second compound 1 µM, first compound 0.00949 µM) of 1.8%. The viability, T/C (second compound 1 µM, first compound 0.03 µM) was 0.2%, the viability, T/C (second compound 1 µM, first compound 0.0949 µM) was 0.2% and the viability, T/C (second compound 1 µM, first compound 0.3 µM) was 1.48%. The viability, T/C (second compound 3.16 µM, first compound 0.000949 µM) was 0.23%, the viability, T/C (second compound 3.16 µM, first compound 0.003 µM) was 0.22% and the viability, T/C (second compound 3.16 µM, first compound 0.00949 µM) was 1.48%. For the same molecule, the viability, T/C (second compound 3.16 µM, first compound 0.03 µM) was 0.22%, the viability, T/C (second compound 3.16 µM, first compound 0.0949 µM) was 0.91% and the viability, T/C (second compound 3.16 µM, first compound 0.3 µM) was 0.82%. It also gave a viability, T/C (second compound 10 µM, first compound 0.000949 µM) of 0.23%, a viability, T/C (second compound 10 µM, first compound 0.003 µM) of 0.26% and a viability, T/C (second compound 10 µM, first compound 0.00949 µM) of 1.25%. The viability, T/C (second compound 10 µM, first compound 0.03 µM) was 1.11%, the viability, T/C (second compound 10 µM, first compound 0.0949 µM) was 1.9% and the viability, T/C (second compound 10 µM, first compound 0.3 µM) was 1.19%.
